These results are taken from PMC3673835, “Synthesis and biological evaluation of 1, 3-dihydroxyxanthone mannich base derivatives as anticholinesterase agents” (Chemistry Central Journal, 2013).

Like-named read-outs stand apart in the source and are kept apart here. Some results are limits rather than exact numbers.

The target in assay [1] is horse-serum BuChE (EC3.1.1.8) (Equus caballus, UniProt P81908). The assay can be described thus: biochemical. It is filed as biochemical. As to conditions: for Selectivity for BuChE/AChE: ratio IC50 BuChE / IC50 AChE; for IC50: substrate butyrylthiocholine, 37°C, pH 8.0.
horse-serum BuChE (EC3.1.1.8), sequence (P81908 whole entry): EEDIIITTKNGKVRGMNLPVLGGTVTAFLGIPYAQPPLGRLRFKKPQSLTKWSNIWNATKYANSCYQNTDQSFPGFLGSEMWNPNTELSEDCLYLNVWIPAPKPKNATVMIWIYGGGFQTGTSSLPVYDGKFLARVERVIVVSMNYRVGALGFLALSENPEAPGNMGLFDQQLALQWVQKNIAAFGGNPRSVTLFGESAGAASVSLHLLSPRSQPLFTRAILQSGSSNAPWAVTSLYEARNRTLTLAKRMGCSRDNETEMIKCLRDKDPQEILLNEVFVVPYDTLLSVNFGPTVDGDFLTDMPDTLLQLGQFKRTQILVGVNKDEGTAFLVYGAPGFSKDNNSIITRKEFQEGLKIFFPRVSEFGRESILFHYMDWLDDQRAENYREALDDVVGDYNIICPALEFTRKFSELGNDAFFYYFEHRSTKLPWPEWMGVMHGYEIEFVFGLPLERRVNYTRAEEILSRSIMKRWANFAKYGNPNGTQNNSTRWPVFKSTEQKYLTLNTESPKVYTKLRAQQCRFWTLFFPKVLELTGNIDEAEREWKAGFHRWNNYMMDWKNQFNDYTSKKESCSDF
The target of assay [2] is Electric-eel AChE (EC 3.1.1.7) (Electrophorus electricus, UniProt O42275). As to the kind of experiment: biochemical. To be noted: means ± standard deviation of triplicate independent experiments; substrate acetylthiocholine iodide; 37°C, pH 8.0.
Electric-eel AChE (EC 3.1.1.7), sequence (O42275 24-633): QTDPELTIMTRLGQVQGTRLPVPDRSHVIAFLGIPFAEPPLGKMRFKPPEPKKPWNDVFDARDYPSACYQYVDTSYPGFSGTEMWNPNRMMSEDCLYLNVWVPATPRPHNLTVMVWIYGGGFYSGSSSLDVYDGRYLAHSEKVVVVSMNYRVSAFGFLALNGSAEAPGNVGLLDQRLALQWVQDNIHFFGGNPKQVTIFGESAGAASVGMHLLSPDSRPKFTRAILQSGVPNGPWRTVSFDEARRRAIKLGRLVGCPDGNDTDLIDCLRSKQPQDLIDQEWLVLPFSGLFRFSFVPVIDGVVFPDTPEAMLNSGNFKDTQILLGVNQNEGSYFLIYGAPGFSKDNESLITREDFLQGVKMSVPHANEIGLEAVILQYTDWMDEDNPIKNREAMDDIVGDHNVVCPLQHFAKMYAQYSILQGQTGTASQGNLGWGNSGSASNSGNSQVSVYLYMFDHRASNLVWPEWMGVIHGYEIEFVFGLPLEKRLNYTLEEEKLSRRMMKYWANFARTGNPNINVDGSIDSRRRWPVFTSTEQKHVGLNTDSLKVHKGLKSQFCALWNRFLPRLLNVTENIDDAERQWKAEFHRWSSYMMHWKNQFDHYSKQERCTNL
For the next assay, the target named is BuChE (Equus caballus, UniProt P81908). The format is biochemical. To be noted: Lineweaver-Burk plots, curves intersect at the secondary quadrant.
BuChE, sequence (P81908 whole entry): as the sequence (P81908 whole entry) above
The target in another assay is T1, AChE (Electrophorus electricus, UniProt O42275).
T1 construct: purchased Sigma
T1 sequence (O42275 24-633): as the sequence (O42275 24-633) above
As to the kind of experiment: Enzyme kinetic assay on AChE (Lineweaver-Burk plots). It is filed as biochemical, Electric-eel. To be noted: curves intersect at the secondary quadrant.

Setting [3] is: listed as 2-((diethylamino)methyl)-1-hydroxy-3-(3-methylbut-2-enyloxy)-9H-xanthen-9-one.

What is called IC50 is the concentration that gives 50% inhibition. A lower IC50 goes with greater potency in that assay. In the case of `CN(C)Cc1c(O)cc2oc3ccccc3c(=O)c2c1O` [1a, 2-((dimethylamino)methyl)-1,3-dihydroxy-9H-xanthen-9-one], in assay [1], the “Selectivity for BuChE/AChE” value was determined as 0.59 and inhibition was half-maximal at 62.9 ± 0.84 µM (IC50). For the same compound, the IC50 in assay [2] was 107 ± 5.78 µM.
`CCN(CC)Cc1c(O)cc2oc3ccccc3c(=O)c2c1O` [1b, 2-((diethylamino)methyl)-1,3-dihydroxy-9H-xanthen-9-one]: in assay [1], the “Selectivity for BuChE/AChE” value came out at 0.50 and the IC50 was found to be 37 ± 0.56 µM. In assay [2], this compound gave a half-inhibitory concentration (IC50) of 73.7 ± 1.36 µM.
Consider `O=c1c2ccccc2oc2cc(O)c(CN3CCCC3)c(O)c12` [1c, 1,3-dihydroxy-2-(pyrrolidin-1-ylmethyl)-9H-xanthen-9-one], for which, in assay [1], the “Selectivity for BuChE/AChE” value was 0.43 and half-maximal inhibition (IC50) required 35.5 ± 1.68 µM. The IC50 in assay [2] was found to be 81.9 ± 2.04 µM.
Turning to `O=c1c2ccccc2oc2cc(O)c(CN3CCCCC3)c(O)c12` [1d, 1,3-dihydroxy-2-(piperidin-1-ylmethyl)-9H-xanthen-9-one], the “Selectivity for BuChE/AChE” value in assay [1] stood at 0.54. Further, the IC50 in assay [1] is 43 ± 1.76 µM; in assay [2] it was 79.3 ± 5.78 µM.
Turning to `O=c1c2ccccc2oc2cc(O)c(CN3CCOCC3)c(O)c12` [1e, 1,3-dihydroxy-2-(morpholinomethyl)-9H-xanthen-9-one], in assay [1], the “Inhibition activity against BuChE at 100 μM” value (shortened to “Inhibition activity”) was “did not show any inhibition activity”, the “Selectivity for BuChE/AChE” value is over 1.05 and the IC50 is over 100 µM. Half-maximal inhibition in assay [2] (IC50) required 95.4 ± 1.7 µM.
On to `COc1cc2oc3ccccc3c(=O)c2c(O)c1CN(C)C` [2a, 2-((dimethylamino)methyl)-1-hydroxy-3-methoxy-9H-xanthen-9-one], for which, in assay [1], the “Selectivity for BuChE/AChE” value is reported as 4.66 and inhibition was half-maximal at 10.9 ± 0.2 µM (IC50). In assay [2], 2.34 ± 0.2 µM corresponded to half-maximal inhibition (IC50).
On to `CCN(CC)Cc1c(OC)cc2oc3ccccc3c(=O)c2c1O` [2b, 2-((diethylamino)methyl)-1-hydroxy-3-methoxy-9H-xanthen-9-one], for which, in assay [1], the “Selectivity for BuChE/AChE” value came to 2.83 and the half-maximal inhibitory concentration (IC50) was found to be 6.79 ± 0.56 µM. Moreover, the IC50 in assay [2] was 2.4 ± 0.49 µM.
The like results for `COc1cc2oc3ccccc3c(=O)c2c(O)c1CN1CCCC1` [2c, 1-hydroxy-3-methoxy-2-(pyrrolidin-1-ylmethyl)-9H-xanthen-9-one] were, in that order, 1.72, 7.21 ± 0.75 µM and 4.2 ± 0.29 µM.
Turning to `COc1cc2oc3ccccc3c(=O)c2c(O)c1CN1CCCCC1` [2d, 1-hydroxy-3-methoxy-2-(piperidin-1-ylmethyl)-9H-xanthen-9-one], in assay [1], the “Selectivity for BuChE/AChE” value is given as 1.53 and the IC50 was determined as 10.6 ± 0.22 µM. In assay [2], this compound gave an IC50 of 7 ± 0.07 µM.
Turning to `COc1cc2oc3ccccc3c(=O)c2c(O)c1CN1CCOCC1` [2e, 1-hydroxy-3-methoxy-2-(morpholinomethyl)-9H-xanthen-9-one], in assay [1], the “Inhibition activity” value is on record as “did not show any inhibition activity”, the “Selectivity for BuChE/AChE” value is reported as over 12.89 and the 50% inhibitory concentration (IC50) was over 100 µM. In assay [2], it took 7.76 ± 2.36 µM to reach half-maximal inhibition (IC50).
For the compound `C=CCOc1cc2oc3ccccc3c(=O)c2c(O)c1CN(C)C` [3a, 3-allyloxy-2-((dimethylamino)methyl)-1-hydroxy-9H-xanthen-9-one], the “Selectivity for BuChE/AChE” value in assay [1] worked out at 0.80. Also, the IC50 in assay [1] is 4.66 ± 0.64 µM; in assay [2] it was 5.84 ± 1.19 µM.
The corresponding values for `C=CCOc1cc2oc3ccccc3c(=O)c2c(O)c1CN(CC)CC` [3b, 3-allyloxy-2-((diethylamino)methyl)-1-hydroxy-9H-xanthen-9-one] are 0.26, 1.54 ± 0.14 µM and 6 ± 0.33 µM.
The corresponding values for `C=CCOc1cc2oc3ccccc3c(=O)c2c(O)c1CN1CCCC1` [3c, 3-allyloxy-1-hydroxy-2-(pyrrolidin-1-ylmethyl)-9H-xanthen-9-one] are 0.70, 3.05 ± 0.13 µM and 4.36 ± 0.58 µM.
Turning to `C=CCOc1cc2oc3ccccc3c(=O)c2c(O)c1CN1CCCCC1` [3d, 3-allyloxy-1-hydroxy-2-(piperidin-1-ylmethyl)-9H-xanthen-9-one], in assay [1], the “Selectivity for BuChE/AChE” value was found to be 0.47 and it took 1.73 ± 0.08 µM to reach half-maximal inhibition (IC50). Besides, 3.7 ± 0.16 µM corresponded to half-maximal inhibition in assay [2] (IC50).
For `C=CCOc1cc2oc3ccccc3c(=O)c2c(O)c1CN1CCOCC1` [3e, 3-allyloxy-1-hydroxy-2-(morpholinomethyl)-9H-xanthen-9-one], in assay [1], the “Inhibition activity” value was “did not show any inhibition activity”, the “Selectivity for BuChE/AChE” value was over 1.34 and the IC50 is over 100 µM. In assay [2], this compound yielded an IC50 of 74.7 ± 4.07 µM.
As to `CC(C)=CCOc1cc2oc3ccccc3c(=O)c2c(O)c1CN(C)C` [4a, 2-((dimethylamino)methyl)-1-hydroxy-3-(3-methylbut-2-enyloxy)-9H-xanthen-9-one], in assay [1], the “Selectivity for BuChE/AChE” value is 0.57 and the IC50 was determined as 1.49 ± 0.03 µM. In addition, in assay [2], it took 2.63 ± 0.07 µM to reach half-maximal inhibition (IC50).
Consider `CCN(CC)Cc1c(OCC=C(C)C)cc2oc3ccccc3c(=O)c2c1O` [4b, 2-((diethylamino)methyl)-1-hydroxy-3-(3-methylbut-2-enyloxy)-9H-xanthen-9-one], for which the “Selectivity for BuChE/AChE” value in assay [1] worked out at 0.20. For the same compound, the IC50 in assay [1] is 0.51 ± 0.01 µM; in assay [2] it was 2.61 ± 0.13 µM. Also, the entries for the “Inhibition mode on BuChE” value at BuChE and on BuChE (setting [3]) were “mixed-type inhibition” and “mixed-type manner”, respectively. The “Inhibition mode on AChE” value is recorded as “mixed-type inhibition” at AChE and “mixed-type manner” at AChE (setting [3]).
Consider `CC(C)=CCOc1cc2oc3ccccc3c(=O)c2c(O)c1CN1CCCC1` [4c, 1-hydroxy-3-(3-methylbut-2-enyloxy)-2-(pyrrolidin-1-ylmethyl)-9H-xanthen-9-one], for which the “Selectivity for BuChE/AChE” value in assay [1] was found to be 0.49. Besides, the half-maximal inhibitory concentration (IC50) is 2.89 ± 0.07 µM in assay [1] and 5.85 ± 0.32 µM in assay [2].
The corresponding values for `CC(C)=CCOc1cc2oc3ccccc3c(=O)c2c(O)c1CN1CCCCC1` [4d, 1-hydroxy-3-(3-methylbut-2-enyloxy)-2-(piperidin-1-ylmethyl)-9H-xanthen-9-one] are 0.10, 5.61 ± 0.08 µM and 55.3 ± 8.15 µM.
The corresponding values for `CC(C)=CCOc1cc2oc3ccccc3c(=O)c2c(O)c1CN1CCOCC1` [4e] are 0.37, 8.83 ± 0.36 µM and 24.2 ± 0.4 µM.
